Test [1] deals with T1, Serine/threonine-protein kinase ULK1 (Homo sapiens, UniProt O75385).
T1 sequence (O75385 whole entry): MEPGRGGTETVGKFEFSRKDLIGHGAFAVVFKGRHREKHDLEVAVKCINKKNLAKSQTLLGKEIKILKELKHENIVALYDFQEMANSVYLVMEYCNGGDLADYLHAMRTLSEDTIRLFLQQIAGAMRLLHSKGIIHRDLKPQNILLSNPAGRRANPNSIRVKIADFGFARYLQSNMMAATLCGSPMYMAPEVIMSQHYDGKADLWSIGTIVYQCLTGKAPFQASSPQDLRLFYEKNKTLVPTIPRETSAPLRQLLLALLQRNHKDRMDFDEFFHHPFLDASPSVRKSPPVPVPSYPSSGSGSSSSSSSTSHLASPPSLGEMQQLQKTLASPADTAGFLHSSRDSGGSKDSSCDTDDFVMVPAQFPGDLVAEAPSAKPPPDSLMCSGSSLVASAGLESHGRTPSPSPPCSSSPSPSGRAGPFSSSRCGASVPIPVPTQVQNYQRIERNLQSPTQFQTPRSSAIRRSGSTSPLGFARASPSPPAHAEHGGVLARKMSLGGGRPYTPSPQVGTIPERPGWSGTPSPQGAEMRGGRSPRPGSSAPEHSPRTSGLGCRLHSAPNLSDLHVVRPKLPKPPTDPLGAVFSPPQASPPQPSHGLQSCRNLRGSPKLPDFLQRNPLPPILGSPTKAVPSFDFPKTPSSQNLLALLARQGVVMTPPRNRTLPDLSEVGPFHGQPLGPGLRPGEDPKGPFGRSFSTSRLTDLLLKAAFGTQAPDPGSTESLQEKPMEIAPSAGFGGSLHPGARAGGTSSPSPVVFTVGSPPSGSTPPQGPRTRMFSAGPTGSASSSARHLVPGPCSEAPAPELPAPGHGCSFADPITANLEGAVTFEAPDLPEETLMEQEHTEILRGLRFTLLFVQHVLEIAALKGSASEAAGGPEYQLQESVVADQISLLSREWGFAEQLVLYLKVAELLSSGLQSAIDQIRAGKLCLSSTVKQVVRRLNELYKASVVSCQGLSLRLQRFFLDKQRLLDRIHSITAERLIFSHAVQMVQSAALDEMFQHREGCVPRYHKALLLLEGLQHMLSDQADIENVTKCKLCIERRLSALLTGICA

For test [2], the target named is T2, Mitogen-activated protein kinase kinase kinase 3 (Homo sapiens, UniProt Q99759).
T2 sequence (Q99759 whole entry): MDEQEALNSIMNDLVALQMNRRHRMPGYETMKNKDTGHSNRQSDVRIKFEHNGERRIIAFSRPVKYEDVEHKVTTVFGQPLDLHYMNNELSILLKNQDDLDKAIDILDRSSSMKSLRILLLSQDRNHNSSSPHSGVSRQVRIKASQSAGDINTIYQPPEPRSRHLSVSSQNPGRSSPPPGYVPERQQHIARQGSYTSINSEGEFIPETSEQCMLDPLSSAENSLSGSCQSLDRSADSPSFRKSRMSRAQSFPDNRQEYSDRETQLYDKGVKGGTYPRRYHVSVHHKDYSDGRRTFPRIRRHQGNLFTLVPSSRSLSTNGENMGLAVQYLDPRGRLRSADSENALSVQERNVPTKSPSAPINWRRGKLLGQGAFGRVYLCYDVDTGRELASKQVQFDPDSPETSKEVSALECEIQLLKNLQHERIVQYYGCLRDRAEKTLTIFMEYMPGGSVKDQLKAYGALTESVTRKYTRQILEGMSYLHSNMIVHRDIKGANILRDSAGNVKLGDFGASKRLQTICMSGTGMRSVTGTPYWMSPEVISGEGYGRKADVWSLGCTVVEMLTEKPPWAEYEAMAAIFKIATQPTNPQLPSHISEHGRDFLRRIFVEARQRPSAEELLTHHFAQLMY

In another test the target is T3, TGF-beta receptor type-1 (Homo sapiens, UniProt P36897).
T3 sequence (P36897 whole entry): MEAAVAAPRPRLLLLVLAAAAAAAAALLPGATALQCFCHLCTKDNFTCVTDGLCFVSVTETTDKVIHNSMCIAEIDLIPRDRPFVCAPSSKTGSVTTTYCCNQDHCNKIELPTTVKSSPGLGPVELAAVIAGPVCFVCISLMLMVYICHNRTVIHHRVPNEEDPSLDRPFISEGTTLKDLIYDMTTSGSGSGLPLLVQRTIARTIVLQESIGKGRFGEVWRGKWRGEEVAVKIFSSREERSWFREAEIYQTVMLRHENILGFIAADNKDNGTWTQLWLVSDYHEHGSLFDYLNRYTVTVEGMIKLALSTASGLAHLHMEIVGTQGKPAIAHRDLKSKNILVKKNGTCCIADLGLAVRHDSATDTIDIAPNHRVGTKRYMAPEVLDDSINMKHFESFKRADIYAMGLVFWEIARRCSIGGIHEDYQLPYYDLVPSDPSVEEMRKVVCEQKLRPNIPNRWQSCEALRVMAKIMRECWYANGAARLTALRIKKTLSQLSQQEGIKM

The target in test [3] is 5'-AMP-activated protein kinase catalytic subunit alpha-1 (Homo sapiens, UniProt Q13131).
The target in test [4] is Mitogen-activated protein kinase kinase kinase 4 (Homo sapiens, UniProt Q9Y6R4).
Test [5] addresses T4, Phenylalanine--tRNA ligase beta subunit (Homo sapiens, UniProt Q9NSD9).
T4 sequence (Q9NSD9 whole entry): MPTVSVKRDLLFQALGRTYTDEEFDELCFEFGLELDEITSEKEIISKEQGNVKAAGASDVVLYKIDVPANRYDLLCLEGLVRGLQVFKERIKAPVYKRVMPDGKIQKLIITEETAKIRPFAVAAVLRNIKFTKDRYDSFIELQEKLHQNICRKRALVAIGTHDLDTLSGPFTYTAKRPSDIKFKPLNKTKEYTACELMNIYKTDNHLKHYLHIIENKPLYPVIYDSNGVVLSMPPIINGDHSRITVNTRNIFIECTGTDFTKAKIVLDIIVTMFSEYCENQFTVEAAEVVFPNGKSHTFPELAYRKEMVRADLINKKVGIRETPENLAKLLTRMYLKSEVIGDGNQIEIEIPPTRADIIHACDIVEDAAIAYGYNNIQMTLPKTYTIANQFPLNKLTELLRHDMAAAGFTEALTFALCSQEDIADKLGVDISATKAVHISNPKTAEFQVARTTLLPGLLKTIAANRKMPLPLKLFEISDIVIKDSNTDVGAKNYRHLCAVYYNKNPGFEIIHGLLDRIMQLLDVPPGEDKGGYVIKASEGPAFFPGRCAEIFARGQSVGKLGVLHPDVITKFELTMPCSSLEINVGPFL

Test [6] addresses Ribosomal protein S6 kinase alpha-4 (Homo sapiens, UniProt O75676).
Test [7] concerns the target cAMP-dependent protein kinase catalytic subunit alpha (Homo sapiens, UniProt P17612).

Molecules are shown by their SMILES. Activity calls are given as the source filed them. Rule as the data show it, for most assays here: actives have a measured Kd and inactives only a lower limit.
Also: in the data inactive means no Kd found up to 30 µM.

Sequence of Mitogen-activated protein kinase kinase kinase 4 (Q9Y6R4 whole entry): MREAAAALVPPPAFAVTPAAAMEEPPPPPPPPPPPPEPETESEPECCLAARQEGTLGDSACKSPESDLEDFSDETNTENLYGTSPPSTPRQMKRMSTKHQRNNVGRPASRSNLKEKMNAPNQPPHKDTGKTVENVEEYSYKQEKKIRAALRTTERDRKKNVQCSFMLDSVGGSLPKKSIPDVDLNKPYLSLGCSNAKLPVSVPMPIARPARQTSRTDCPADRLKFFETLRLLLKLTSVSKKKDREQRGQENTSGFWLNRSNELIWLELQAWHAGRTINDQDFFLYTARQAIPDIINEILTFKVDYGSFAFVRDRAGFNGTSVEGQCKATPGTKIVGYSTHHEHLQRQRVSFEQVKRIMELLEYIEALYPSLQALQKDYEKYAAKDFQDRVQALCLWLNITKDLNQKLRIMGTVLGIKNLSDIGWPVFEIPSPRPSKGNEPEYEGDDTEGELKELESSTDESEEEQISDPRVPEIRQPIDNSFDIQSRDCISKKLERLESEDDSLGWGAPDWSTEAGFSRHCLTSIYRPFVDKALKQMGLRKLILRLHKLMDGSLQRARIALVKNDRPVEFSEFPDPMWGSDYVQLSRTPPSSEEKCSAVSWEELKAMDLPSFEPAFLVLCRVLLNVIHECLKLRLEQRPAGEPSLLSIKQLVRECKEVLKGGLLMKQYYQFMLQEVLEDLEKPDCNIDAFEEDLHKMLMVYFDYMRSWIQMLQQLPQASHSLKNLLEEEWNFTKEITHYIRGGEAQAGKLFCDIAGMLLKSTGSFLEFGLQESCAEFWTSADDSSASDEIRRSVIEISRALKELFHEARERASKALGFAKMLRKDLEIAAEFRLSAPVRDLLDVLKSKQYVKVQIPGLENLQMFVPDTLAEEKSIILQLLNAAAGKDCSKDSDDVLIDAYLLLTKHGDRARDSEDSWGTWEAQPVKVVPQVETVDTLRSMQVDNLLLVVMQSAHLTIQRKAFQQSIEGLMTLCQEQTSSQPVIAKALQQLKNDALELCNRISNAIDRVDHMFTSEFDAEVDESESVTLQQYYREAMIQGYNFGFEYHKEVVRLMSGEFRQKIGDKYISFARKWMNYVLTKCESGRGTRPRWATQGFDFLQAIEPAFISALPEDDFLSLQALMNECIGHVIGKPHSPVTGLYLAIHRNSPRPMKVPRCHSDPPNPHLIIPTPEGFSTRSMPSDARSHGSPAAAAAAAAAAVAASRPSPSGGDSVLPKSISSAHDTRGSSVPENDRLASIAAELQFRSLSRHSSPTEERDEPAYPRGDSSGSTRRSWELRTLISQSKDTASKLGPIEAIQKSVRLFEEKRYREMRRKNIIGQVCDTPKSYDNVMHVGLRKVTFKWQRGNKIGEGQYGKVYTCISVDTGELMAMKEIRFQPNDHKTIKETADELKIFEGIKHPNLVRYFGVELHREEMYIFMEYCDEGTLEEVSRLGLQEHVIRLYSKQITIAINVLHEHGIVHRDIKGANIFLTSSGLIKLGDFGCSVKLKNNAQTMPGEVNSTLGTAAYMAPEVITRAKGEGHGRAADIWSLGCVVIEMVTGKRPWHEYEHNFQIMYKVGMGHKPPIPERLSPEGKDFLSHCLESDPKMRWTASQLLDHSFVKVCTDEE
Sequence of Ribosomal protein S6 kinase alpha-4 (O75676 whole entry): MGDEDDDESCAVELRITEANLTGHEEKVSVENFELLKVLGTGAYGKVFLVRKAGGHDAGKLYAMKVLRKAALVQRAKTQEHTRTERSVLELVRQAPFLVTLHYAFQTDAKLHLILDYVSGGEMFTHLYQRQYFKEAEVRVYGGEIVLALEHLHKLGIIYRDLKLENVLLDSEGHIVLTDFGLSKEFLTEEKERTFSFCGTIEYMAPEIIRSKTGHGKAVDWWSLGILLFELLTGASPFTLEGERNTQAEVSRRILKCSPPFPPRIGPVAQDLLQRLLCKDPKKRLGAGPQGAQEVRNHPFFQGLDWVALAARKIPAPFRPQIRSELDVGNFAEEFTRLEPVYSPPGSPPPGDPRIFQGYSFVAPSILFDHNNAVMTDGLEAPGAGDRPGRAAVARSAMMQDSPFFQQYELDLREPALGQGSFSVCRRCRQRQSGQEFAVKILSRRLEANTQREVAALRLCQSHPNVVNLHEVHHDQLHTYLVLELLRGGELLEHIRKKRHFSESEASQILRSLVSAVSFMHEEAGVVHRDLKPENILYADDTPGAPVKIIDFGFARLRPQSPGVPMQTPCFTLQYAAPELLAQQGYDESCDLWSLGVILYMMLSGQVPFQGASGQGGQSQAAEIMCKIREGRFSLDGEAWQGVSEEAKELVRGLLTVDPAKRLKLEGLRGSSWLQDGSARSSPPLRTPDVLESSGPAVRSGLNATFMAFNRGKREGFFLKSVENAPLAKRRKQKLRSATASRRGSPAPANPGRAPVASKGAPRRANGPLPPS
Sequence of 5'-AMP-activated protein kinase catalytic subunit alpha-1 (Q13131 whole entry): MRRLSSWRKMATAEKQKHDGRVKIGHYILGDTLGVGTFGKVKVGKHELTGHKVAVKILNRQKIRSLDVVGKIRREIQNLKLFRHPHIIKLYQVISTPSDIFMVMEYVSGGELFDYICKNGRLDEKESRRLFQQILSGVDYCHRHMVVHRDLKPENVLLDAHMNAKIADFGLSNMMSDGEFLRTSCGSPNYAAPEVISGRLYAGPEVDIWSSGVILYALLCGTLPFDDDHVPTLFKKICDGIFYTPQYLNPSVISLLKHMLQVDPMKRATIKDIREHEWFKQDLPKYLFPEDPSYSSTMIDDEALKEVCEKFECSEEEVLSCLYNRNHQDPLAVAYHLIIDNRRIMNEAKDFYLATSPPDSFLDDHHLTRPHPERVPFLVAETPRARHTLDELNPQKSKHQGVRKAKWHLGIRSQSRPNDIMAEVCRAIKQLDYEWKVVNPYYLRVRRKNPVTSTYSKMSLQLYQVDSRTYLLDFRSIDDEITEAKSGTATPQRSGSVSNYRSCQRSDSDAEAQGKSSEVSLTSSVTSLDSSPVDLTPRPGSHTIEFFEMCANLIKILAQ

As to `C[C@@H](Oc1cc(C(=O)Nc2ccc(C(=O)N3CCN(C)CC3)cc2)nnc1N)c1c(Cl)ccc(F)c1Cl`, the Kd (in test [1]; in test [2]; at TGF-beta receptor type-1; in test [3]; in test [4]; in test [5]) was > 30 µM (inactive) each time. Also, the Kd in test [6] and in test [7] was > 30 µM (inactive) in each case.
Consider `C[C@H]1CNCCCN1S(=O)(=O)c1cccc2cncc(F)c12`, for which the Kd is > 30 µM (inactive) in test [1]; > 30 µM (inactive) in test [2]; > 30 µM (inactive) on TGF-beta receptor type-1; 3.27 µM (active) in test [3]; > 30 µM (inactive) in test [4]; > 30 µM (inactive) in test [5]. Also, the Kd in test [6] and in test [7] was > 30 µM (inactive) throughout.
As to `CCNC(=O)C#Cc1ccc2c(c1)NC(=O)/C2=C(\Nc1ccc(CN(C)C)cc1)c1ccccc1`, the Kd is > 30 µM (inactive) in test [1]; > 30 µM (inactive) in test [2]; > 30 µM (inactive) on TGF-beta receptor type-1; 3.05 µM (active) in test [3]; > 30 µM (inactive) in test [4]; > 30 µM (inactive) in test [5]. Moreover, the Kd in test [6] was 1.46 µM (active); in test [7] it was > 30 µM (inactive).
Regarding `C=CC(=O)N1CCC[C@H](n2c(=O)n(-c3ccc(Oc4ccccc4)cc3)c3c(N)ncnc32)C1`, the Kd (in test [1]; in test [2]; on TGF-beta receptor type-1; in test [3]; in test [4]; in test [5]) was > 30 µM (inactive) each time. In addition, the Kd in test [6] and in test [7] was > 30 µM (inactive) throughout.
Regarding `Cc1nc2cc(-c3nn(C(C)C)c4ncnc(N)c34)ccc2o1`, the Kd in test [1] is > 30 µM (inactive); in test [2], > 30 µM (inactive); at TGF-beta receptor type-1 it was 2.47 µM (active); in test [3] it was > 30 µM (inactive); in test [4], > 30 µM (inactive); in test [5], > 30 µM (inactive). The Kd in test [6] and in test [7] was > 30 µM (inactive) throughout.
In the case of `COCc1c(-c2ccc(NC(=O)Nc3cc(C(F)(F)F)ccc3F)c(F)c2)c2c(N)ncnn2c1CN1CCOCC1`, the Kd (in test [1]; in test [2]; at TGF-beta receptor type-1; in test [3]; in test [4]; in test [5]) was > 30 µM (inactive) in each case. Moreover, the Kd in test [6] and in test [7] was > 30 µM (inactive) in each case.
As to `Nc1ncnc2c1c(-c1cccc(OCc3ccccc3)c1)cn2[C@H]1C[C@@H](CN2CCC2)C1` [AEW-541], the Kd (in test [1]; in test [2]; on TGF-beta receptor type-1; in test [3]; in test [4]; in test [5]) was > 30 µM (inactive) in each case. In addition, the Kd in test [6] and in test [7] was > 30 µM (inactive) in each case.
As to `Cc1nc(NC(=O)N2CCC[C@H]2C(N)=O)sc1-c1ccnc(C(C)(C)C(F)(F)F)c1` [ALPELISIB], the Kd (in test [1]; in test [2]; at TGF-beta receptor type-1; in test [3]; in test [4]; in test [5]) was > 30 µM (inactive) in each case. For the same compound, the Kd in test [6] and in test [7] was > 30 µM (inactive) throughout.
In the case of `CCOc1cc2ncc(C#N)c(Nc3ccc(F)c(Cl)c3)c2cc1NC(=O)/C=C/CN(C)C` [PELITINIB], the Kd in test [1] is > 30 µM (inactive); in test [2] it was 2.09 µM (active); on TGF-beta receptor type-1, > 30 µM (inactive); in test [3] it was > 30 µM (inactive); in test [5], > 30 µM (inactive); in test [6] it was > 30 µM (inactive). Further, in test [7], the Kd is > 30 µM (inactive).

In general, Kd refers to the equilibrium constant for the complex coming apart.

Values taken from ChEMBL document CHEMBL3991601, “The target landscape of clinical kinase drugs” (Science, 2017).
